One test relates to NUGC4 (P53 WT). Briefly: Cell viability assay (CellTiter-Glo, 6 days), NUGC4. The class given is cell-based. The method in brief: (§1)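 Cells seeded overnight at 37 °C, then exposed to compounds in medium for 6 days. Viability read by CellTiter-Glo luminescence, normalized to DMSO cell wells (high) and medium-only wells (low); IC50 taken as concentration giving 50% viability from 4-parameter logistic fit.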
In general terms: ATP-based viability assays read luminescence as a measure of living cells.

Test [1] deals with T1, His-p53 Y220C (94-294) protein (Homo sapiens, UniProt P04637, Y220C).
T1 construct: His-p53 Y220C (94-294) protein
Description: In vitro DNA binding assay (HTRF). The conditions noted are these: % activation normalized to 2 μM Ref-1a high control. The class given is biochemical.

In test [2] the test system is NUGC-3_P53_Luc single clonal cell line (p53 Y220C). Briefly: Reporter gene assay (p53 RE luciferase). The class given is cell-based. The method in brief:
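NUGC-3 cells stably carrying a p53 RE-driven luc2P reporter, washed free of phenol red, exposed to compound for 6 h at 37 °C; luminescence read. Activity normalised between DMSO (low) and Ref-1a 10 μM (high) controls; EC50 from 4-parameter logistic fit or Excel as concentration giving 50% activity.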
For orientation: A reporter such as luciferase makes a cellular process visible.

The test system of another test is NUGC3 (P53 Y220C). Briefly: Cell viability assay (CellTiter-Glo, 6 days), NUGC3. The class given is cell-based. The method in brief:
as §1

Setting [3] is: Homo sapiens, NUGC-4, 144 h, cell viability, 6 days, CellTiter-Glo, read-out: NUGC4 (P53 WT) IC50.
Setting [4] is: Homo sapiens, NUGC-3, 6 h, luciferase reporter, 6 hours, normalized to Ref-1a (10 μM) high control, read-out: p53(Y220C)_NUGC-3 EC50.
Where [5] appears, read: Homo sapiens, NUGC-3, 144 h, cell viability, 6 days, CellTiter-Glo, read-out: NUGC3 (P53 Y220C) IC50.
Setting [6] is: Homo sapiens, NUGC-3, luciferase reporter, 6 hours, normalized to Ref-1a (10 μM) high control, read-out: p53(Y220C)_NUGC-3 EC50.

Where two headings read alike, the source gives them in different places.

One may read the IC50 as the concentration needed to halve the response being measured. As a reminder, the EC50 is the concentration at which the effect is half-maximal. Regarding `CNC(=O)c1ccc(NCC#Cc2sc3c(N[C@H]4CCN(C)C[C@H]4F)cccc3c2CC(F)(F)F)c(OC)c1` [Example 112, 4-((3-(7-(((3R,4S)-3-fluoro-1-methylpiperidin-4-yl)amino)-3-(2,2,2-trifluoroethyl)benzo[b]thiophen-2-yl)prop-2-yn-1-yl)amino)-3-methoxy-N-methylbenzamide], the IC50 is 7.51 µM with NUGC4 (P53 WT) (setting [3]) and 2.09 µM in the test on NUGC3 (P53 Y220C) (setting [5]). Also, the results for the half-maximal effective concentration (EC50) in test [1] and in test [2] (setting [4]) were 0.135 µM and 0.27 µM, respectively.
Regarding `CNC(=O)c1ccc(NCC#Cc2sc3c(N[C@H]4CCN(C)C[C@H]4F)cccc3c2CC(F)(F)F)c(OC)c1` (racemic) [Example 41, 4-((3-(7-(((3R,4S)-3-fluoro-1-methylpiperidin-4-yl)amino)-3-(2,2,2-trifluoroethyl)benzo[b]thiophen-2-yl)prop-2-yn-1-yl)amino)-3-methoxy-N-methylbenzamide], the IC50 came to 6.14 µM with NUGC4 (P53 WT) (setting [3]) and 1.54 µM with NUGC3 (P53 Y220C) (setting [5]). Moreover, the concentration giving a half-maximal response (EC50) was 0.057 µM in test [1] and 0.6 µM in test [2] (setting [6]).
Regarding `COc1cc(P(=O)(C2CC2)C2CC2)ccc1NCC#Cc1sc2c(N[C@@H]3CCN(C)C[C@@H]3F)cccc2c1CC(F)(F)F` (racemic) [Example 99, dicyclopropyl(4-((3-(7-(((Z)-3-fluoro-1-methylpiperidin-4-yl)amino)-3-(2,2,2-trifluoroethyl)benzo[b]thiophen-2-yl)prop-2-yn-1-yl)amino)-3-methoxyphenyl)phosphine oxide], the IC50 worked out at 6.58 µM in the test with NUGC4 (P53 WT) (Homo sapiens, NUGC-4, 144 h, read-out: NUGC4 (P53 WT) IC50 (μM)) and 1.44 µM with NUGC3 (P53 Y220C) (Homo sapiens, NUGC-3, 144 h, read-out: NUGC3 (P53 Y220C) IC50 (μM)). Also, the EC50 was found to be 0.087 µM in test [1] and 0.15 µM in test [2] (Homo sapiens, NUGC-3, 6 h, read-out: p53(Y220C)_NUGC-3 EC50 (μM)).
Consider `COc1c(NCC#Cc2sc3c(N[C@@H]4CCN(C)C[C@@H]4F)cccc3c2CC(F)(F)F)ccc(P(C)(C)=O)c1F` [Example 194, (2-fluoro-4-((3-(7-(((3S,4R)-3-fluoro-1-methylpiperidin-4-yl)amino)-3-(2,2,2-trifluoroethyl)benzo[b]thiophen-2-yl)prop-2-yn-1-yl)amino)-3-methoxyphenyl)dimethylphosphine oxide], for which the IC50 is 12.2 µM in the test on NUGC4 (P53 WT) (setting [3]) and 1.75 µM in the test on NUGC3 (P53 Y220C) (setting [5]). Also, the concentration giving a half-maximal response (EC50) in test [1] stood at 0.033 µM; in test [2] (setting [6]) it was 0.15 µM.
`CCN1CC[C@H](Nc2cccc3c(CC(F)(F)F)c(C#CCNc4ccc(P(C)(C)=O)cc4OC)sc23)[C@H](F)C1` [Example 136, (4-((3-(7-(((3R,4S)-1-ethyl-3-fluoropiperidin-4-yl)amino)-3-(2,2,2-trifluoroethyl)benzo[b]thiophen-2-yl)prop-2-yn-1-yl)amino)-3-methoxyphenyl)dimethylphosphine oxide]: the IC50 in the test with NUGC4 (P53 WT) (setting [3]) turned out to be 4.88 µM; with NUGC3 (P53 Y220C) (setting [5]), 1.63 µM. In addition, the 50% effective concentration (EC50) in test [1] is 0.046 µM; in test [2] (setting [4]), 0.24 µM.
The like results for `CN1CC[C@H](Nc2cccc3c(CC(F)(F)F)c(C#CCNc4ccc(P(C)(C)=O)cc4C(F)F)sc23)[C@H](F)C1` [Example 225, (3-(difluoromethyl)-4-((3-(7-(((3R,4S)-3-fluoro-1-methylpiperidin-4-yl)amino)-3-(2,2,2-trifluoroethyl)benzol[b]thiophen-2-yl)prop-2-yn-1-yl)amino)phenyl)dimethylphosphine oxide] were, in that order, 13.6 µM, 0.44 µM, 0.036 µM and 0.17 µM.
With `CN1CCC(Nc2cccc3c(CC(F)(F)F)c(C#CCNc4ccc(P(C)(C)=O)cc4OC(F)(F)F)sc23)C(F)C1` (stereo not drawn) [Example 65, (4-((3-(7-(((Z)-3-fluoro-1-methylpiperidin-4-yl)amino)-3-(2,2,2-trifluoroethyl)benzo[b]thiophen-2-yl)prop-2-yn-1-yl)amino)-3-(trifluoromethoxy)phenyl)dimethylphosphine oxide], the IC50 is 10 µM in the test with NUGC4 (P53 WT) (cell viability, 6 days, CellTiter-Glo, read-out: NUGC4 (P53 WT) IC50) and 1.56 µM with NUGC3 (P53 Y220C) (cell viability, 6 days, CellTiter-Glo, read-out: NUGC3 (P53 Y220C) IC50). In addition, the EC50 in test [1] came out at 0.046 µM; in test [2] (luciferase reporter, 6 hours, normalized to Ref-1a (10 μM) high control, read-out: p53(Y220C)_NUGC-3 EC50), 0.12 µM.
In the case of `CNC(=O)c1ccc(NCC#Cc2cc3c(N[C@H]4CCN(C)C[C@H]4F)cccc3n2CC(F)(F)F)c(OC)c1` [Example 111, 4-((3-(4-(((3R,4S)-3-fluoro-1-methylpiperidin-4-yl)amino)-1-(2,2,2-trifluoroethyl)-1H-indol-2-yl)prop-2-yn-1-yl)amino)-3-methoxy-N-methylbenzamide], the half-maximal inhibitory concentration (IC50) came out at 13.1 µM in the test with NUGC4 (P53 WT) (setting [3]) and 1.84 µM in the test on NUGC3 (P53 Y220C) (setting [5]). Besides, the EC50 in test [1] turned out to be 0.101 µM; in test [2] (setting [4]), 0.16 µM.
Consider `[2H]C([2H])([2H])Oc1cc(P(C)(C)=O)ccc1NCC#Cc1sc2c(N[C@@H]3CCN(C)C[C@@H]3F)cccc2c1CC(F)(F)F` [Example 174, (4-((3-(7-(((3S,4R)-3-fluoro-1-methylpiperidin-4-yl)amino)-3-(2,2,2-trifluoroethyl)benzo[b]thiophen-2-yl)prop-2-yn-1-yl)amino)-3-(methoxy-d3)phenyl)dimethylphosphine oxide], for which the figures for the IC50 in the test on NUGC4 (P53 WT) (setting [3]) and with NUGC3 (P53 Y220C) (setting [5]) were 5.93 µM and 0.35 µM, respectively. Also, the EC50 was 0.015 µM in test [1] and 0.06 µM in test [2] (setting [6]).
The corresponding values for `COCC(O)CN1CC[C@@H](Nc2cccc3c(CC(F)(F)F)c(C#CCNc4ccc(P(C)(C)=O)cc4OC)sc23)[C@@H](F)C1` (relative stereo) [Example 97, 1-[(Z)-4-[[2-[3-(4-dimethylphosphoryl-2-methoxy-anilino)prop-1-ynyl]-3-(2,2,2-trifluoroethyl)benzothiophen-7-yl]amino]-3-fluoro-1-piperidyl]-3-methoxy-propan-2-ol] are 5.72 µM, 0.96 µM, 0.071 µM and 0.15 µM.
The like results for `COc1cc(S(C)(=O)=O)ccc1NCC#Cc1cc2c(N[C@H]3CCN(C)C[C@H]3F)cccc2n1CC(F)(F)F` [Ref-1b, N-((3R,4S)-3-fluoro-1-methylpiperidin-4-yl)-2-(3-((2-methoxy-4-(methylsulfonyl)phenyl)amino)prop-1-yn-1-yl)-1-(2,2,2-trifluoroethyl)-1H-indol-4-amine, reference compound] were, in that order, 12.5 µM, 1.92 µM, 0.096 µM and 0.2 µM.
The corresponding values for `COc1cc(P(C)(C)=O)ccc1NCC#Cc1sc2c(N[C@@H]3CCN(C4CCOCC4)C[C@@H]3F)cccc2c1CC(F)(F)F` (racemic) [Example 73, (Z)-(4-((3-(7-((3-fluoro-1-(tetrahydro-2H-pyran-4-yl)piperidin-4-yl)amino)-3-(2,2,2-trifluoroethyl)benzo[b]thiophen-2-yl)prop-2-yn-1-yl)amino)-3-methoxyphenyl)dimethylphosphine oxide] are 3.42 µM, 0.77 µM, 0.07 µM and 0.13 µM.
As for `COc1cc(P(C)(C)=O)ccc1NCC#Cc1sc2c(NC3C4CCC3CN(C)C4)cccc2c1CC(F)(F)F` (stereo not drawn) [Example 124, (3-methoxy-4-((3-(7-((3-methyl-3-azabicyclo[3.2.1]octan-8-yl)amino)-3-(2,2,2-trifluoroethyl)benzo[b]thiophen-2-yl)prop-2-yn-1-yl)amino)phenyl)dimethylphosphine oxide], the IC50 in the test on NUGC4 (P53 WT) (setting [3]) stood at 7.23 µM; in the test on NUGC3 (P53 Y220C) (setting [5]), 2.31 µM. Moreover, the EC50 in test [1] was determined as 0.143 µM; in test [2] (setting [6]), 0.47 µM.
As for `COc1cc(P(C)(C)=O)ccc1NCC#Cc1sc2c(N[C@H]3CCN(C)C[C@@H]3C)cccc2c1CC(F)(F)F` [Example 127, (4-((3-(7-(((3S,4S)-1,3-dimethylpiperidin-4-yl)amino)-3-(2,2,2-trifluoroethyl)benzo[b]thiophen-2-yl)prop-2-yn-1-yl)amino)-3-methoxyphenyl)dimethylphosphine oxide], the half-maximal inhibitory concentration (IC50) in the test with NUGC4 (P53 WT) (setting [3]) turned out to be 2.26 µM; with NUGC3 (P53 Y220C) (setting [5]) it was 0.33 µM. Moreover, the figures for the 50% effective concentration (EC50) in test [1] and in test [2] (setting [4]) were 0.038 µM and 0.1 µM, respectively.
As to `COc1cc(P(C)(C)=O)ccc1NCC#Cc1sc2c(NC3CC(C)N(C)C(C)C3)cccc2c1CC(F)(F)F` (stereo not drawn) [Example 143, (3-methoxy-4-((3-(3-(2,2,2-trifluoroethyl)-7-((1,2,6-trimethylpiperidin-4-yl)amino)benzo[b]thiophen-2-yl)prop-2-yn-1-yl)amino)phenyl)dimethylphosphine oxide], the IC50 came out at 6.94 µM in the test with NUGC4 (P53 WT) (setting [3]) and 1.94 µM in the test on NUGC3 (P53 Y220C) (setting [5]). The values for the EC50 in test [1] and in test [2] (setting [6]) were 0.106 µM and 0.45 µM, respectively.
